Measurements taken from ChEMBL document CHEMBL1149896, “Abietane diterpenoids from Clerodendrum bungei” (J Nat Prod, 2008).

Legend:
HGC-27 = assay: Cytotoxicity against human HGC27 cells after 48 hrs by MTT assay; assay type: functional, cell-based; details: HGC-27, 48 h
HEK293 [1] = assay: Cytotoxicity against HEK293 cells after 48 hrs by MTT assay; assay type: cell-based; details: Homo sapiens, HEK293, 48 h
B16 = assay: Cytotoxicity against mouse B16 cells after 48 hrs by MTT assay; assay type: functional, cell-based; details: B16, 48 h
HEK293 [2] = assay: Cell cycle arrest in HEK293 cells assessed as accumulation at G1 phase at 0.5 […] after 24 hrs by flow cytometry; assay type: functional, Homo sapiens
HEK293 [3] = assay: Cell cycle arrest in HEK293 cells assessed as accumulation at G2/M phase at 2.5 uM after 24 hrs by flow cytometry; assay type: functional, Homo sapiens
HEK293 [4] = assay: Cell cycle arrest in HEK293 cells assessed as accumulation at S phase at 5 uM after 24 hrs by flow cytometry; assay type: functional, Homo sapiens
HEK293 [5] = assay: Cell cycle arrest in HEK293 cells assessed as accumulation at S phase at 0.5 uM after 24 hrs by flow cytometry; assay type: functional, Homo sapiens
HEK293 [6] = assay: Cell cycle arrest in HEK293 cells assessed as accumulation at S phase at 2.5 uM after 24 hrs by flow cytometry; assay type: functional, Homo sapiens
HEK293 [7] = assay: Cell cycle arrest in HEK293 cells assessed as accumulation at G2/M phase at 5 uM after 24 hrs by flow cytometry; assay type: functional, Homo sapiens
HEK293 [8] = assay: Cell cycle arrest in HEK293 cells assessed as accumulation at G1 phase at 5 nM after 24 hrs by flow cytometry; assay type: functional, Homo sapiens
HEK293 [9] = assay: Cell cycle arrest in HEK293 cells assessed as accumulation at G1 phase at 10 uM after 24 hrs by flow cytometry; assay type: functional, Homo sapiens
HEK293 [10] = assay: Cell cycle arrest in HEK293 cells assessed as accumulation at G1 phase at 2.5 uM after 24 hrs by flow cytometry; assay type: functional, Homo sapiens
HEK293 [11] = assay: Cell cycle arrest in HEK293 cells assessed as accumulation at G2/M phase at 5 nM after 24 hrs by flow cytometry; assay type: functional, Homo sapiens
HEK293 [12] = assay: Cell cycle arrest in HEK293 cells assessed as accumulation at G2/M phase at 10 uM after 24 hrs by flow cytometry; assay type: functional, Homo sapiens
HEK293 [13] = assay: Cell cycle arrest in HEK293 cells assessed as accumulation at S phase at 5 nM after 24 hrs by flow cytometry; assay type: functional, Homo sapiens
HEK293 [14] = assay: Cell cycle arrest in HEK293 cells assessed as accumulation at G2/M phase at 0.5 uM after 24 hrs by flow cytometry; assay type: functional, Homo sapiens
HEK293 [15] = assay: Cell cycle arrest in HEK293 cells assessed as accumulation at G1 phase at 5 uM after 24 hrs by flow cytometry; assay type: functional, Homo sapiens
HEK293 [16] = assay: Cell cycle arrest in HEK293 cells assessed as accumulation at S phase at 10 uM after 24 hrs by flow cytometry; assay type: functional, Homo sapiens

Compound	IC50 (HGC-27) [µM]	IC50 (HEK293 [1]) [µM]	IC50 (B16) [µM]	other results
C[C@H](CO)c1cc2c(c(O)c1O[C@@H]1O[C@H](CO)[C@@H](O)[C@H](O)[C@H]1O)[C@@]1(C)CCC[C@](C)(CO[C@@H]3O[C@H](CO)[C@@H](O)[C@H](O)[C@H]3O)[C@@H]1CC2	> 10	> 10	> 10	
C[C@H](CO)c1cc2c(c(O)c1O[C@@H]1O[C@H](CO)[C@@H](O)[C@H](O)[C@H]1O)[C@@]1(C)CCC[C@](C)(C(=O)O[C@@H]3O[C@H](CO)[C@@H](O)[C@H](O)[C@H]3O)[C@@H]1CC2	> 10	> 10	> 10	
CC1=C(C(=O)O)[C@@H]2CC(=O)c3cc(CC(C)O)c(O[C@@H]4O[C@H](CO)[C@@H](O)[C@H](O)[C@H]4O)c(O)c3[C@@]2(C)CC1 (some centres undefined)	> 10	> 10	> 10	
CC1=C(CO)C2=CC(=O)c3c(c(O)c4oc(C)cc4c3O)[C@@]2(C)CC1=O	> 10	> 10	> 10	
CC1=C(C)C2=CC(=O)c3c(O)c4c(c(O)c3[C@@]2(C)CC1)OC(C)C4 (some centres undefined)	5.3	1.2	6.4	Activity (HEK293 [2]): 45.43%; Activity (HEK293 [3]): 16.12%; Activity (HEK293 [4]): 46.58%; Activity (HEK293 [5]): 31.01%; Activity (HEK293 [6]): 40.45%; Activity (HEK293 [7]): 23.92%; Activity (HEK293 [8]): 50.14%; Activity (HEK293 [9]): 22.5%; Activity (HEK293 [10]): 43.44%; Activity (HEK293 [11]): 16.14%; Activity (HEK293 [12]): 34.88%; Activity (HEK293 [13]): 33.72%; Activity (HEK293 [14]): 23.57%; Activity (HEK293 [15]): 29.5%; Activity (HEK293 [16]): 42.62%
C[C@H](CO)c1cc2c(c(O)c1O[C@@H]1O[C@H](CO)[C@@H](O)[C@H](O)[C@H]1O)[C@@]1(C)CC[C@H](O[C@@H]3O[C@H](CO)[C@@H](O)[C@H](O)[C@H]3O)C(C)(C)[C@@H]1CC2	> 10	> 10	> 10	
CC1=C(C)C2=CC(=O)c3c(c(O)c4oc(C)cc4c3O)[C@@]2(C)CC1=O	> 10	> 10	> 10	
C[C@H](CO)c1cc2c(c(O)c1O[C@@H]1O[C@H](CO)[C@@H](O)[C@H](O)[C@H]1O)[C@@]1(C)CC[C@H](O)C(C)(C)[C@@H]1CC2	> 10	> 10	> 10	
